PMC12169475 (ACS Medicinal Chemistry Letters, 2025)
Where two headings read alike, the source gives them in different places. Ends that are not written are not given here.

Columns and labels:
[1] = system: A. baumannii NICD 15283 (C); parameters: key: S - Susceptible; R - Resistant; I – Intermediate; details: A. baumannii NICD 15283 clinical isolate; ref NICD; cited from earlier work
[2] = system: E. cloacae NICD 16103 (C); parameters: key: S - Susceptible; R - Resistant; I – Intermediate; details: E. cloacae NICD 16103 clinical isolate; ref NICD; cited from earlier work
E. coli ATCC 700928 = details: for Modal MIC: E. coli ATCC 700928, cation-adjusted MHB, ~5 x 10^5 CFU/mL, 37°C 20 h, OD600, n = 6; for Selectivity index (HaCat LC50 / MIC): E. coli ATCC 700928 over HaCat cells
Protocol: (§1) Antibacterial activity against a panel of standard laboratory strains and clinical isolates.
(§2) Antimicrobial activity was evaluated against a panel of Gram-negative bacteria maintained by H3D, University of Cape Town, consisting of six laboratory reference strains and two clinical isolates. Briefly, bacterial colonies from an LB agar plate were picked and cultured in cation-adjusted Mueller Hinton broth (MHB) at 37°C with 180 rpm shaking, overnight. Cultures were […]
(§3) back diluted to reach a starting optical density at 600 nm (OD600) of 0.1 and then diluted 100- […]
(§4) media down polypropylene 96-well plates. Inoculum was added at a 1:1 ratio resulting in a […]
(§5) (Suppl. Table S2). Plates were incubated at 37°C for 20 h and the OD600 determined. Minimum inhibition concentrations (MICs) were determined from a minimum of three biological repeats. […]
(§6) the background absorbance.
(§7) Caution! All bacterial work was conducted using appropriate biosafety level 2 (BSL-2) practices.
(§8) Clinical isolates and reference strains were handled in a biosafety cabinet with proper PPE to prevent exposure and contamination.

[3] = system: K. pneumoniae ATCC BAA-1705; details: for Modal MIC: K. pneumoniae ATCC BAA-1705, cation-adjusted MHB, ~5 x 10^5 CFU/mL, 37°C 20 h, OD600, n = 6; for Selectivity index (HaCat LC50 / MIC): K. pneumoniae ATCC BAA-1705 over HaCat cells
Protocol: as §1, §2, §3, §4, §5, §6, §7, §8

P. aeruginosa PAO1 = details: for Modal MIC: P. aeruginosa PAO1, cation-adjusted MHB, ~5 x 10^5 CFU/mL, 37°C 20 h, OD600, n = 6; for Selectivity index (HaCat LC50 / MIC): P. aeruginosa PAO1 over HaCat cells
Protocol: as §1, §2, §3, §4, §5, §6, §7, §8

E. coli ATCC 25922 = details: for Modal MIC: E. coli ATCC 25922, cation-adjusted MHB, ~5 x 10^5 CFU/mL, 37°C 20 h, OD600, triplicate experiments in duplicate (n = 6); for Selectivity index (HaCat LC50 / MIC): E. coli ATCC 25922 over HaCat cells
Protocol: as §1, §2, §3, §4, §5, §6, §7

A. baumannii ATCC 19606 = details: for Modal MIC: A. baumannii ATCC 19606, cation-adjusted MHB, ~5 x 10^5 CFU/mL, 37°C 20 h, OD600, n = 6; for Selectivity index (HaCat LC50 / MIC): A. baumannii ATCC 19606 over HaCat cells
Protocol: as §1, §2, §3, §4, §5, §6, §7, §8

[4] = system: A. baumannii NICD 15283 (C); details: for Modal MIC: A. baumannii NICD 15283 clinical isolate, cation-adjusted MHB, ~5 x 10^5 CFU/mL, 37°C 20 h, OD600, n = 6; for Selectivity index (HaCat LC50 / MIC): A. baumannii NICD 15283 clinical isolate over HaCat cells
Protocol: as §1, §2, §3, §4, §5, §6, §7, §8

E. cloacae ATCC 700323 = details: for Modal MIC: E. cloacae ATCC 700323, cation-adjusted MHB, ~5 x 10^5 CFU/mL, 37°C 20 h, OD600, n = 6; for Selectivity index (HaCat LC50 / MIC): E. cloacae ATCC 700323 over HaCat cells
Protocol: as §1, §2, §3, §4, §5, §6, §7, §8

[5] = system: E. cloacae NICD 16103 (C); details: for Modal MIC: E. cloacae NICD 16103 clinical isolate, cation-adjusted MHB, ~5 x 10^5 CFU/mL, 37°C 20 h, OD600, n = 6; for Selectivity index (HaCat LC50 / MIC): E. cloacae NICD 16103 clinical isolate over HaCat cells
Protocol: as §1, §2, §3, §4, §5, §6, §7, §8

E. cloacae NICD 16103 = format: cell-based, Enterobacter cloacae; details: then MIC 20 h 37°C; for MIC after trypsin treatment: trypsin 0.15 U/mL pH 7.4 (picture: 1 mM), 1 h 37°C, inactivated 60°C 20 min
HaCat cells [6] = details: previously reported, ref Van der Walt et al.; cited from earlier work
Protocol: The toxicity of the analogues was assessed against HaCat cells, which serve as a relevant model for the intended topical application of these peptides in burn wound care.

mammalian erythrocytes = details: previously reported, ref Van der Walt et al.; cited from earlier work
HepG2 cells = details: previously reported, ref Van der Walt et al.; cited from earlier work
HaCat cells [7] = experiment: In vitro cytotoxicity screening against epidermal HaCat cells (MTT); details: 24 h exposure in total (21 h + 3 h MTT), OD570, three independent experiments in duplicate (n = 6)

| Compound | Antimicrobial susceptibility profile [1] | Antimicrobial susceptibility profile [2] | Modal MIC (E. coli ATCC 700928) [µg/mL] | Modal MIC [3] | Modal MIC (P. aeruginosa PAO1) [µg/mL] | Modal MIC (E. coli ATCC 25922) | Modal MIC (A. baumannii ATCC 19606) [µg/mL] | Modal MIC [4] | Modal MIC (E. cloacae ATCC 700323) | Modal MIC [5] | other results |
| --- | --- | --- | --- | --- | --- | --- | --- | --- | --- | --- | --- |
| NCC[C@H](O)C(=O)N[C@@H]1C[C@H](N)[C@@H](O[C@H]2O[C@H](CN)[C@@H](O)[C@H](O)[C@H]2O)[C@H](O)[C@H]1O[C@H]1O[C@H](CO)[C@@H](O)[C@H](N)[C@H]1O [Amikacin] | R | S |  |  |  |  |  |  |  |  |  |
| O=C(O)c1cn(C2CC2)c2cc(N3CCNCC3)c(F)cc2c1=O [Ciprofloxacin, reference compound] |  |  | 0.25 | > 32 µg/mL | 0.5 |  |  |  |  |  |  |
| CNC(C)C1CCC(N)C(OC2C(N)CC(N)C(OC3OCC(C)(O)C(NC)C3O)C2O)O1 (centres unmarked) [Gentamicin, reference compound] | R | R | 0.5 | 1/2 | 4 | 0.5 µg/mL | 32 | 16/32 | 2 µg/mL | > 32 µg/mL |  |
| C[C@@H](O)[C@H]1C(=O)N2C(C(=O)O)=C(SCCN=CN)C[C@H]12 [Imipenem] | R | R |  |  |  |  |  |  |  |  |  |
| CC[C@H](C)[C@H](NC(=O)CN)C(=O)NCC(=O)N[C@@H](C)C(=O)N[C@H](C(=O)N[C@@H](CC(C)C)C(=O)N[C@@H](CCCCN)C(=O)N[C@H](C(=O)N[C@@H](CC(C)C)C(=O)N[C@H](C(=O)N[C@H](C(=O)NCC(=O)N[C@@H](CC(C)C)C(=O)N1CCC[C@H]1C(=O)N[C@@H](C)C(=O)N[C@@H](CC(C)C)C(=O)N[C@H](C(=O)N[C@@H](CO)C(=O)N[C@@H](Cc1c[nH]c2ccccc12)C(=O)N[C@H](C(=O)N[C@@H](CCCCN)C(=O)N[C@@H](CCCNC(=N)N)C(=O)N[C@@H](CCCCN)C(=O)N[C@@H](CCCNC(=N)N)C(=O)N[C@@H](CCC(N)=O)C(=O)N[C@@H](CCC(N)=O)C(N)=O)[C@@H](C)CC)[C@@H](C)CC)[C@@H](C)O)[C@@H](C)O)C(C)C)C(C)C [Melittin, reference compound] |  |  | 4 |  | 2 |  |  | 4 µg/mL |  | 8 µg/mL |  |
| C[C@@H](O)[C@H]1C(=O)N2C(C(=O)O)=C(S[C@@H]3CN[C@H](C(=O)N(C)C)C3)[C@H](C)[C@H]12 [Meropenem, reference compound] | R | R |  |  |  |  |  | 32 µg/mL |  | 16 µg/mL |  |
| CC1(C)[C@H](C(=O)O)N2C(=O)C[C@H]2S1(=O)=O [Sulbactam] | I | R |  |  |  |  |  |  |  |  |  |
| CN(C)[C@@H]1C(O)=C(C(N)=O)C(=O)[C@@]2(O)C(O)=C3C(=O)c4c(O)cccc4[C@@](C)(O)[C@H]3C[C@@H]12 [Tetracycline] | R | R |  |  |  |  |  |  |  |  |  |
| NC[C@H]1O[C@H](O[C@H]2[C@H](O)[C@@H](O[C@H]3O[C@H](CO)[C@@H](O)[C@H](N)[C@H]3O)[C@H](N)C[C@@H]2N)[C@H](N)C[C@@H]1O [Tobramycin] | R | R |  |  |  |  |  |  |  |  |  |
| GKVWDWIKSTAKKLWN-NH2 [Opis16a] |  |  |  |  |  |  |  |  |  |  | MIC in FCS (20%) (E. cloacae NICD 16103; peptide preincubated in 20% FCS 1 h at 37°C): 64 µg/mL; MIC after trypsin treatment (E. cloacae NICD 16103): > 32 µg/mL; HaCat toxicity LC50 + SD (HaCat cells [6]): 311 ± 12 µg/mL; HC50 (mammalian erythrocytes): > 256 µg/mL; LC50 (HepG2 cells): 118 ± 8 µg/mL |
| GKVWKWIKSTAKKLWN-NH2 [Opis16aD5K] |  |  |  | 16 µg/mL | 8 | 16 µg/mL | 8 | 8 µg/mL | 16 µg/mL | 8 µg/mL | Selectivity index (HaCat LC50 / MIC) (A. baumannii ATCC 19606): 18.5; Selectivity index (HaCat LC50 / MIC) [4]: 18.5; Selectivity index (HaCat LC50 / MIC) (E. cloacae ATCC 700323): 9.27; Selectivity index (HaCat LC50 / MIC) [5]: 18.5; Selectivity index (HaCat LC50 / MIC) [3]: 9.27; Selectivity index (HaCat LC50 / MIC) (P. aeruginosa PAO1): 18.5; HaCat toxicity LC50 + SD (HaCat cells [7]): 148 ± 6 µg/mL |
| GKVWKWIKSTARRLWN-NH2 [Opis16aCterKR] |  |  | 4 | 8 µg/mL | 4 | 8 (8×) μg/mL | 4 | 8 µg/mL | 8 (8×) μg/mL | 4 (4×) μg/mL | Selectivity index (HaCat LC50 / MIC) (E. coli ATCC 25922): 22.6; Selectivity index (HaCat LC50 / MIC) (A. baumannii ATCC 19606): 45.2; Selectivity index (HaCat LC50 / MIC) [4]: 22.6; Selectivity index (HaCat LC50 / MIC) (E. cloacae ATCC 700323): 22.6; Selectivity index (HaCat LC50 / MIC) [5]: 45.2; Selectivity index (HaCat LC50 / MIC) (E. coli ATCC 700928): 45.2; Selectivity index (HaCat LC50 / MIC) [3]: 22.6; Selectivity index (HaCat LC50 / MIC) (P. aeruginosa PAO1): 45.2; MIC after trypsin treatment (E. cloacae NICD 16103): > 32 µg/mL; HaCat toxicity LC50 + SD (HaCat cells [7]): 181 ± 8 µg/mL |
| GRVWRWIKSTAKKLWN-NH2 [Opis16aNterKR] |  |  | 4 | 16 µg/mL | 4 | 8 (8×) μg/mL | 4 | 8 µg/mL | 16 µg/mL | 8 µg/mL | Selectivity index (HaCat LC50 / MIC) (E. coli ATCC 25922): 17.3; Selectivity index (HaCat LC50 / MIC) (A. baumannii ATCC 19606): 34.6; Selectivity index (HaCat LC50 / MIC) [4]: 17.3; Selectivity index (HaCat LC50 / MIC) (E. cloacae ATCC 700323): 8.64; Selectivity index (HaCat LC50 / MIC) [5]: 17.3; Selectivity index (HaCat LC50 / MIC) (E. coli ATCC 700928): 34.6; Selectivity index (HaCat LC50 / MIC) [3]: 8.64; Selectivity index (HaCat LC50 / MIC) (P. aeruginosa PAO1): 34.6; HaCat toxicity LC50 + SD (HaCat cells [7]): 138 ± 14 µg/mL |
| GRVWRWIRSTARRLWN-NH2 [Opis16aKR] |  |  | 4 | 16 µg/mL | 4 | 8 (8×) μg/mL | 4 | 8 µg/mL | 8 (8×) μg/mL | 4 (4×) μg/mL | Selectivity index (HaCat LC50 / MIC) (E. coli ATCC 25922): 16.4; Selectivity index (HaCat LC50 / MIC) (A. baumannii ATCC 19606): 32.9; Selectivity index (HaCat LC50 / MIC) [4]: 16.4; Selectivity index (HaCat LC50 / MIC) [5]: 32.9; Selectivity index (HaCat LC50 / MIC) (E. coli ATCC 700928): 32.9; Selectivity index (HaCat LC50 / MIC) [3]: 8.21; Selectivity index (HaCat LC50 / MIC) (P. aeruginosa PAO1): 32.9; HaCat toxicity LC50 + SD (HaCat cells [7]): 131 ± 5 µg/mL |
| Polymyxin B [reference compound] |  |  | 0.5 | 0.5 µg/mL |  | 0.25 µg/mL | 1 | 1 µg/mL | 0.25 µg/mL |  |  |
